Experimental data: publication PMC9356275, “A quantitative high-throughput screen identifies compounds that lower expression of the SCA2-and ALS-associated gene ATXN2” (The Journal of Biological Chemistry, 2022)
pIC50: −log10 of the molar value. Structures can show the parent of a compound that is named as a salt. Where two headings read alike, the source gives them in different places.

How the values were obtained:
ATXN2-luc [1] = assay: MSSR pilot screen: ATXN2-luc luciferase assay (Bright-Glo) in H2 cells, single 10 μM dose; assay type: cell-based, human; details: for SD from mean (ATXN2-luc, Z-score): H2 cells, single dose (title: 10 μM compound), overnight; for ¦Score/1SD¦: absolute score divided by 1SD (0.891 or 0.9)
ATXN2-luc [2] = assay: MSSR hit retest: ATXN2-luc luciferase assay, average of H2 and S1 cells (1 and 10 uM); assay type: cell-based, human; design: H2&S1 ave luc 1uM / H2&S1 ave luc 10uM: scale not given here; details: for H2&S1 ave luc 10uM / activity at 10 µM: head line r3 10uM; for H2&S1 ave luc 10uM: head line r4 20 uM compound; for activity at 1 µM / activity / activity at 10 µM: Homo sapiens; for activity at 1 µM: read-out: H2&S1 ave luc 1uM; for activity / activity at 10 µM: read-out: H2&S1 ave luc 10uM
Excerpt: (§1) Supplement mmc2.xlsx, sheet "43 annotated compounds"

ATXN2-luc [3] = assay: MSSR hit retest / multiconcentration testing: ATXN2-luc luciferase assay in H2 cells (1 and 10 μM); assay type: cell-based, human; details: for H2&S1 ave luc 1uM: 1 uM compound; for H2&S1 ave luc 10uM: 10 uM compound
H2 and S1 cells = assay: Paired MTT viability assay, average of H2 and S1 cells (1 and 10 uM); assay type: cell-based, human; design: H2&S1 ave MTT 1uM / H2&S1 ave MTT 10uM: unit not given here; details: for viability at 1 µM / viability at 10 µM: Homo sapiens
Excerpt: as §1

CMV-luc = assay: Secondary assays: CMV-luc in SC cells, Bright-Glo; assay type: cell-based, human; details: minimum CMV-luc signal in SC cells over 12 doses; summary data
Protocol: (§2) Compounds were plated at 2× concentrations in phenol red–free DMEM in 25 μl in 384-well plates with each compound dose plated in triplicate. An equal volume of S2, H2, or SC cells (24,000 cells/well) suspended in phenol red–free DMEM with 10% fetal bovine serum and 1× penicillin/streptomycin were added. Cells were grown 24 h and then assayed first by using the CellTiter-Fluor reagent (20 μl) followed by the addition of Bright-Glo (65 μl) luciferase assay, using a multimode plate reader (Beckman; DT880). Values were reported as the mean ± SD with n = 3. IC50s were determined by the Hill coefficient method using an online tool (https://www.aatbio.com/tools/ic50-calculator).

ATXN2-luc [4] = assay: Secondary assays: ATXN2-luc in S2 and H2 cells, 12 doses, Bright-Glo; assay type: cell-based, human; details: summary data; for pIC50: ATXN2-luc luciferase assays in H2 and S2 cells, 12 doses plus a zero dose, read-out: Mean IC50; for min ATXN2-luc (%): minimum ATXN2-luc signal over 12 doses, H2 and S2 cells
Protocol: (§3) The values for H2 and S2 were used as replicates to calculate IC50s and to assess cell viability.
as §2

S2, H2 or SC cells = assay: Secondary assays: multiplexed cell viability (CellTiter-Fluor); details: minimum viability, multiplexed CellTiter-Fluor, over 12 doses; summary data
Protocol: as §3, §2

[5] = pilot screen at 10 µM compound, H2 cells expressing ATXN2-luc
[6] = 1 uM compound, average of H2 and S1 cells
[7] = luciferase, average of H2 and S1 cells expressing ATXN2-luc, rescreen
[8] = pilot screen, H2 cells expressing ATXN2-luc, single dose printed as 10 μM compound
[9] = luciferase assay, average of H2 and S1 cells (both ATXN2-luc), rescreen from plated libraries
[10] = read-out: H2&S1 ave MTT 1uM, 1 uM compound
[11] = read-out: H2&S1 ave MTT 10uM, 10 uM compound
[12] = 1 uM compound, read-out: H2&S1 ave MTT 1uM
[13] = 10 uM compound, read-out: H2&S1 ave MTT 10uM

Row | Molecule | SD from mean (ATXN2-luc, Z-score) (ATXN2-luc [1]) [SD] | SD from mean (pilot screen) (ATXN2-luc [1]; pilot screen) [SD] | SD from mean (pilot screen) (ATXN2-luc [1]; [5]) | ¦Score/1SD¦ (ATXN2-luc [1]; pilot screen) | H2&S1 ave luc 1uM (ATXN2-luc [2]; [6]) | H2&S1 ave luc 10uM (ATXN2-luc [2]; average of H2 and S1 cells) | H2&S1 ave luc 1uM (ATXN2-luc [3]; [7]) | H2&S1 ave luc 10uM (ATXN2-luc [3]; [7]) | H2&S1 ave MTT 1uM (H2 and S1 cells; 1 uM compound) | H2&S1 ave MTT 10uM (H2 and S1 cells; 10 uM compound) | SD from mean (pilot screen) (ATXN2-luc [1]; [8]) | H2&S1 ave luc 1uM (ATXN2-luc [3]; [9]) | also measured
1 | C/C1=C2/[N-][C@H]([C@H](CC(N)=O)[C@@]2(C)CCC(=O)NC[C@@H](C)OP(=O)([O-])O[C@H]2[C@@H](O)[C@@H](n3cnc4cc(C)c(C)cc43)O[C@@H]2CO)[C@]2(C)N=C(/C(C)=C3N=C(/C=C4N=C1[C@@H](CCC(N)=O)C\4(C)C)[C@@H](CCC(N)=O)[C@]\3(C)CC(N)=O)[C@@H](CCC(N)=O)[C@]2(C)CC(N)=O.[Co] [COBALAMINE] | -5.111 | -5.111 | -5.111 | 5.68 | 126 | 109 | 126 | 109 | 115.867 | 108.02 |  |  | 
2 | CC[C@H]1CN2CCc3cc(OC)c(OC)cc3[C@@H]2C[C@@H]1C[C@H]1NCCc2cc(O)c(OC)cc21.Cl.Cl.O.O.O.O.O.O.O [Cephaeline dihydrochloride heptahydrate] | -4.055 | -4.055 | -4.055 | 4.55 | 16 | 17 | 16 | 17 | 59.1374 | 62.1025 |  |  | 
3 | CO[C@H]1[C@@H](O)[C@@H](C)O[C@@H](O[C@H]2CC[C@]3(C)[C@H]4CC[C@]5(C)[C@@H](C6=CC(=O)OC6)CC[C@]5(O)[C@@H]4CC[C@]3(O)C2)[C@@H]1O [EMICYMARIN] | -3.080 | -3.080 |  | 3.42 | 115 | 31 |  |  | 111.923 | 53.425 | -3.080 | 115 | H2&S1 ave luc 10uM (ATXN2-luc [3]; [9]): 31
4 | CNC1CC(c2ccc(Cl)c(Cl)c2)c2ccccc21 (centres unmarked) [Indatraline] |  | -3.071 |  | 3.41 |  |  |  |  |  |  | -3.071 | 107 | activity at 1 µM (ATXN2-luc [2]): 107%; activity (ATXN2-luc [2]): 5.53%; viability at 1 µM (H2 and S1 cells; [10]): 117%; viability at 10 µM (H2 and S1 cells; [11]): 13.5%
5 | CS(=O)(=O)Nc1ccc(Cc2noc(-c3ccc4[nH]cc(CCN)c4c3)n2)cc1 [L-694 247] | -3.156 | -3.156 |  | 3.51 | 110 | 6 |  |  | 107.272 | 16.3621 | -3.156 | 110 | H2&S1 ave luc 10uM (ATXN2-luc [3]; [9]): 6
6 | Cc1cnc(NC(=O)CN2CCN(c3ccccn3)CC2)s1 [MLS000035284-02] |  |  |  |  |  |  |  |  |  |  |  |  | min SC luc (%) (CMV-luc): 4.094%; pIC50 (ATXN2-luc [4]): 4.89; min ATXN2-luc (%) (ATXN2-luc [4]): 38.5658%; min viability (%) (S2, H2 or SC cells): 76.8459%
7 | Clc1ccc(C[n+]2cc(-c3ccccc3)n3c2CCCCC3)c(Cl)c1.[Br-] [MLS000420216-02] |  |  |  |  |  |  |  |  |  |  |  |  | min SC luc (%) (CMV-luc): 72.1585%; pIC50 (ATXN2-luc [4]): 5.09; min ATXN2-luc (%) (ATXN2-luc [4]): 56.4685%; min viability (%) (S2, H2 or SC cells): 84.5162%
8 | S=C(NCCCN1CCOCC1)N1CCN(c2nc(-c3ccccc3)cs2)CC1 [MLS000706289-02] |  |  |  |  |  |  |  |  |  |  |  |  | min SC luc (%) (CMV-luc): 79.3012%; pIC50 (ATXN2-luc [4]): 5.16; min ATXN2-luc (%) (ATXN2-luc [4]): 61.6491%; min viability (%) (S2, H2 or SC cells): 89.1129%
9 | CC1=CC(=O)c2ccccc2C1=O [Menadione] | -3.434 | -3.434 |  | 3.85 |  |  |  |  |  |  | -3.434 | 115 | activity at 1 µM (ATXN2-luc [2]; [6]): 115%; activity at 10 µM (ATXN2-luc [2]; average of H2 and S1 cells): 35%; viability at 1 µM (H2 and S1 cells; [12]): 153%; viability at 10 µM (H2 and S1 cells; [13]): 103%
10 | C[C@@H]1CCC/C=C\[C@H]2C[C@H](O)C[C@@H]2[C@H](O)/C=C\C(=O)O1 [NCGC00017254-02, (+)-Brefeldin A] |  |  |  |  |  |  |  |  |  |  |  |  | min SC luc (%) (CMV-luc): 84.381%; pIC50 (ATXN2-luc [4]): 5.54; min ATXN2-luc (%) (ATXN2-luc [4]): 44.7226%; min viability (%) (S2, H2 or SC cells): 72.9816%
11 | CCC(=C/[C@H](C)C/C=C/C(C)=C/[C@@H](C)C(=O)[C@@H](C)[C@H](O)[C@@H](C)C/C(C)=C/C(=O)O)/C=C/[C@@H]1OC(=O)C=C[C@@H]1C [NCGC00162440-02] |  |  |  |  |  |  |  |  |  |  |  |  | min SC luc (%) (CMV-luc): 90.0621%; pIC50 (ATXN2-luc [4]): 7.32; min ATXN2-luc (%) (ATXN2-luc [4]): 28.333%; min viability (%) (S2, H2 or SC cells): 65.4242%
12 | COc1ccc(CCCOC(Cn2ccnc2)c2ccc(OC)cc2)cc1 (centres unmarked) [SKF-96365] | -2.721 | -2.721 |  | 3.05 | 104 | 57 |  |  | 115.609 | 90.0391 | -2.721 | 104 | H2&S1 ave luc 10uM (ATXN2-luc [3]; [9]): 57
13 | CC(C)c1cc(/C=C(\C#N)C(=O)NCCCc2ccccc2)cc(C(C)C)c1O [SU1498] | -4.885 | -4.885 | -4.885 | 5.48 | 22 | 15 | 22 | 15 | 86.0811 | 61.708 |  |  | 
14 | [H]/N=C(/NCCCCC)N/N=C/c1c[nH]c2ccc(OC)cc12 [TEGASEROD MALEATE] | -3.606 | -3.606 |  | 4.01 |  |  |  |  |  |  | -3.606 | 105 | activity at 1 µM (ATXN2-luc [2]; [6]): 105%; activity at 10 µM (ATXN2-luc [2]; average of H2 and S1 cells): 8%; viability at 1 µM (H2 and S1 cells; [12]): 106%; viability at 10 µM (H2 and S1 cells; [13]): 14.2%
15 | CCN(CC)CCCCCCCCOC(=O)c1cc(OC)c(OC)c(OC)c1 [TMB-8] | -5.740 | -5.740 | -5.740 | 6.44 | 66 | 53 | 66 | 53 | 73.9218 | 52.1193 |  |  | 
16 | COc1cccc(C2(O)CCCCC2CN(C)C)c1 (centres unmarked) [Tramadol] | -3.415 | -3.415 |  | 3.79 |  |  |  |  |  |  | -3.415 | 107 | activity at 1 µM (ATXN2-luc [2]): 107%; activity (ATXN2-luc [2]): 134%; H2&S1 ave luc 10uM (ATXN2-luc [3]; [9]): 134; viability at 1 µM (H2 and S1 cells; [10]): 128%; viability at 10 µM (H2 and S1 cells; [11]): 113%
17 | O=c1[nH]c(=O)n([C@H]2C[C@H](O)[C@@H](CO)O2)cc1C(F)(F)F [Trifluridine] | -5.158 | -5.158 | -5.158 | 5.79 |  |  | 102 |  |  |  |  |  | activity at 1 µM (ATXN2-luc [2]; [6]): 102%; activity at 10 µM (ATXN2-luc [2]; average of H2 and S1 cells): 71%; viability at 1 µM (H2 and S1 cells; [12]): 80.3%; viability at 10 µM (H2 and S1 cells; [13]): 53%
18 | C1CCC(N=C(NC23CC4CC(CC(C4)C2)C3)N2CCOCC2)CC1.Cl [U-37883A] | -4.965 | -4.965 | -4.965 | 5.57 | 94 | 17 | 94 | 17 | 105.463 | 56.7572 |  |  | 
19 | Cyanocobalamin | -2.681 | -2.681 |  | 3.01 | 110 | 140 |  |  | 151.543 | 134.855 | -2.681 | 110 | H2&S1 ave luc 10uM (ATXN2-luc [3]; [9]): 140
20 | STROPH[…] LACTONE ACETATE | -3.855 | -3.855 | -3.855 | 4.28 | 37 |  | 37 | 20 | 43.5914 | 36.6277 |  |  | 
